# Tested on: 299254-011-R-J1-PDC complex spheroids viability
# Experiment: Anticancer human tumor 299254-011-R-J1-PDC patient-derived melanoma cell line growth inhibition [GQUAD]
# Details: for IC50: curve of first compound; for viability, T/C: stronger effect = lower value
# Procedure, shortened: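 Viability of tumor cells grown as complex spheroids with endothelial and stromal cells, exposed to drug combinations. Top concentration at or near clinical Cmax (else 10 microM), diluted in half-log increments.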
# [1] = second compound 0.0316 µM, first compound 0.0316 µM
# [2] = second compound 0.0316 µM, first compound 0.1 µM
# [3] = second compound 0.0316 µM, first compound 0.316 µM
# [4] = second compound 0.0316 µM, first compound 1 µM
# [5] = second compound 0.0316 µM, first compound 3.16 µM
# [6] = second compound 0.0316 µM, first compound 10 µM
# [7] = second compound 0.1 µM, first compound 0.0316 µM
# [8] = second compound 0.1 µM, first compound 0.1 µM
# [9] = second compound 0.1 µM, first compound 0.316 µM
# [10] = second compound 0.1 µM, first compound 1 µM
# [11] = second compound 0.1 µM, first compound 3.16 µM
# [12] = second compound 0.1 µM, first compound 10 µM
# [13] = second compound 0.316 µM, first compound 0.0316 µM
# [14] = second compound 0.316 µM, first compound 0.1 µM
# [15] = second compound 0.316 µM, first compound 0.316 µM
# [16] = second compound 0.316 µM, first compound 1 µM
# [17] = second compound 0.316 µM, first compound 3.16 µM
# [18] = second compound 0.316 µM, first compound 10 µM
# [19] = second compound 1 µM, first compound 0.0316 µM
# [20] = second compound 1 µM, first compound 0.1 µM
# [21] = second compound 1 µM, first compound 0.316 µM
# [22] = second compound 1 µM, first compound 1 µM
# [23] = second compound 1 µM, first compound 3.16 µM
# [24] = second compound 1 µM, first compound 10 µM
# [25] = second compound 3.16 µM, first compound 0.0316 µM
# [26] = second compound 3.16 µM, first compound 0.1 µM
# [27] = second compound 3.16 µM, first compound 0.316 µM
# [28] = second compound 3.16 µM, first compound 1 µM
# [29] = second compound 3.16 µM, first compound 3.16 µM
# [30] = second compound 3.16 µM, first compound 10 µM
# [31] = second compound 10 µM, first compound 0.0316 µM
# [32] = second compound 10 µM, first compound 0.1 µM
# [33] = second compound 10 µM, first compound 0.316 µM
# [34] = second compound 10 µM, first compound 1 µM
# [35] = second compound 10 µM, first compound 3.16 µM
# [36] = second compound 10 µM, first compound 10 µM
# 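Further: spheroids exposed to the agents for seven days before readout.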
# 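Wherever viability, T/C is given: percent viability relative to DMSO vehicle control wells = 100%.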
smiles,measurement,setting,value
CC(=O)O[C@H]1C(=O)[C@@]2(C)[C@H]([C@H](OC(=O)c3ccccc3)[C@]3(O)C[C@H](OC(=O)[C@H](O)[C@@H](NC(=O)c4ccccc4)c4ccccc4)C(C)=C1C3(C)C)[C@]1(OC(C)=O)CO[C@@H]1C[C@@H]2O + CN(C)c1ccc(Nc2c3ccc(NC(=O)CCN4CCCC4)cc3nc3cc(NC(=O)CCN4CCCC4)ccc23)cc1,IC50,second compound 0.0316 µM,461 nM
same,IC50,second compound 0.1 µM,364 nM
same,IC50,second compound 0.316 µM,271 nM
same,IC50,second compound 1 µM,316 nM
same,IC50,second compound 3.16 µM,489 nM
same,IC50,second compound 10 µM,524 nM
same,"viability, T/C",[1],73.9%
same,"viability, T/C",[2],84.6%
same,"viability, T/C",[3],60.9%
same,"viability, T/C",[4],26.3%
same,"viability, T/C",[5],19%
same,"viability, T/C",[6],17.5%
same,"viability, T/C",[7],83.8%
same,"viability, T/C",[8],87.4%
same,"viability, T/C",[9],51.9%
same,"viability, T/C",[10],23.7%
same,"viability, T/C",[11],14.5%
same,"viability, T/C",[12],11.2%
same,"viability, T/C",[13],81.5%
same,"viability, T/C",[14],96%
same,"viability, T/C",[15],44%
same,"viability, T/C",[16],37.1%
same,"viability, T/C",[17],22.6%
same,"viability, T/C",[18],16.4%
same,"viability, T/C",[19],93.8%
same,"viability, T/C",[20],78%
same,"viability, T/C",[21],49.8%
same,"viability, T/C",[22],28.6%
same,"viability, T/C",[23],19.1%
same,"viability, T/C",[24],17.7%
same,"viability, T/C",[25],89.1%
same,"viability, T/C",[26],83.8%
same,"viability, T/C",[27],60.6%
same,"viability, T/C",[28],32.2%
same,"viability, T/C",[29],19.1%
same,"viability, T/C",[30],16.4%
same,"viability, T/C",[31],83.3%
same,"viability, T/C",[32],84.3%
same,"viability, T/C",[33],62.7%
same,"viability, T/C",[34],33%
same,"viability, T/C",[35],17.4%
same,"viability, T/C",[36],15.1%
CC1COCCN1c1cc(C2(O)CC3CCC(C2)O3)c2cnn(-c3ccn[nH]3)c2n1 (stereo unspecified) + CN(C)c1ccc(Nc2c3ccc(NC(=O)CCN4CCCC4)cc3nc3cc(NC(=O)CCN4CCCC4)ccc23)cc1,IC50,second compound 0.0316 µM,140 nM
same,IC50,second compound 0.1 µM,99.8 nM
same,IC50,second compound 0.316 µM,180 nM
same,IC50,second compound 1 µM,137 nM
same,IC50,second compound 3.16 µM,147 nM
same,IC50,second compound 10 µM,117 nM
same,"viability, T/C",[1],77.1%
same,"viability, T/C",[2],60.4%
same,"viability, T/C",[3],25.2%
same,"viability, T/C",[4],18%
same,"viability, T/C",[5],13.7%
same,"viability, T/C",[6],6.37%
same,"viability, T/C",[7],87%
same,"viability, T/C",[8],51.1%
same,"viability, T/C",[9],24.2%
same,"viability, T/C",[10],17.4%
same,"viability, T/C",[11],12.4%
same,"viability, T/C",[12],5.43%
same,"viability, T/C",[13],82.9%
same,"viability, T/C",[14],73%
same,"viability, T/C",[15],27.6%
same,"viability, T/C",[16],16.7%
same,"viability, T/C",[17],9.78%
same,"viability, T/C",[18],5.4%
same,"viability, T/C",[19],93.8%
same,"viability, T/C",[20],59.3%
same,"viability, T/C",[21],25.9%
same,"viability, T/C",[22],17.8%
same,"viability, T/C",[23],12.5%
same,"viability, T/C",[24],5.02%
same,"viability, T/C",[25],86.8%
same,"viability, T/C",[26],61%
same,"viability, T/C",[27],27.7%
same,"viability, T/C",[28],19.2%
same,"viability, T/C",[29],14%
same,"viability, T/C",[30],6.53%
same,"viability, T/C",[31],98.5%
same,"viability, T/C",[32],54%
same,"viability, T/C",[33],25.9%
same,"viability, T/C",[34],13.8%
same,"viability, T/C",[35],15.2%
same,"viability, T/C",[36],7.27%
Cc1[nH]c2ccccc2c1CCNCc1ccc(/C=C/C(=O)NO)cc1 + Cc1cnc(CNC(=O)c2c(=O)c3ccc(N4CCCN(C)CC4)nc3n3c2sc2ccccc23)cn1,IC50,second compound 0.0316 µM,139 nM
same,IC50,second compound 0.1 µM,172 nM
same,IC50,second compound 0.316 µM,101 nM
same,IC50,second compound 1 µM,48.4 nM
same,IC50,second compound 3.16 µM,45.5 nM
same,IC50,second compound 10 µM,< 0.999 nM
same,"viability, T/C","second compound 0.0316 µM, first compound 0.000999 µM",92.3%
same,"viability, T/C","second compound 0.0316 µM, first compound 0.00316 µM",84.4%
same,"viability, T/C","second compound 0.0316 µM, first compound 0.00999 µM",94.6%
same,"viability, T/C",[1],80.3%
same,"viability, T/C","second compound 0.0316 µM, first compound 0.0999 µM",65.2%
same,"viability, T/C",[3],14.4%
same,"viability, T/C","second compound 0.1 µM, first compound 0.000999 µM",92.7%
same,"viability, T/C","second compound 0.1 µM, first compound 0.00316 µM",106%
same,"viability, T/C","second compound 0.1 µM, first compound 0.00999 µM",97.1%
same,"viability, T/C",[7],80.7%
same,"viability, T/C","second compound 0.1 µM, first compound 0.0999 µM",87.6%
same,"viability, T/C",[9],10.7%
same,"viability, T/C","second compound 0.316 µM, first compound 0.000999 µM",107%
same,"viability, T/C","second compound 0.316 µM, first compound 0.00316 µM",92.4%
same,"viability, T/C","second compound 0.316 µM, first compound 0.00999 µM",97.3%
same,"viability, T/C",[13],91.3%
same,"viability, T/C","second compound 0.316 µM, first compound 0.0999 µM",50.4%
same,"viability, T/C",[15],10.3%
same,"viability, T/C","second compound 1 µM, first compound 0.000999 µM",86.5%
same,"viability, T/C","second compound 1 µM, first compound 0.00316 µM",103%
same,"viability, T/C","second compound 1 µM, first compound 0.00999 µM",79.7%
same,"viability, T/C",[19],63.4%
same,"viability, T/C","second compound 1 µM, first compound 0.0999 µM",28.6%
same,"viability, T/C",[21],4.65%
same,"viability, T/C","second compound 3.16 µM, first compound 0.000999 µM",82.8%
same,"viability, T/C","second compound 3.16 µM, first compound 0.00316 µM",77.7%
same,"viability, T/C","second compound 3.16 µM, first compound 0.00999 µM",68.4%
same,"viability, T/C",[25],63.5%
same,"viability, T/C","second compound 3.16 µM, first compound 0.0999 µM",28%
same,"viability, T/C",[27],0.2%
same,"viability, T/C","second compound 10 µM, first compound 0.000999 µM",26.3%
same,"viability, T/C","second compound 10 µM, first compound 0.00316 µM",8.63%
same,"viability, T/C","second compound 10 µM, first compound 0.00999 µM",0.47%
same,"viability, T/C",[31],0.44%
same,"viability, T/C","second compound 10 µM, first compound 0.0999 µM",0.35%
same,"viability, T/C",[33],0.26%

# From PubChem BioAssay AID2060513 (Molecular Pharmacology Branch, DTP, NCI, 2025)
